In US20090131470A1, “PYRAZOLE-SUBSTITUTED BENZIMIDAZOLE DERIVATIVES FOR USE IN THE TREATMENT OF CANCER AND AUTOIMMUNE DISORDERS” (priority 2005, published 2009) one finds IC50 data, which are given here for 14 molecules.

SMILES strings stand for the structures. Bounds are passed on as bounds.

Assay type in all cases: biochemical
One experiment has as its target T1, Akt1 (Homo sapiens, UniProt P31749).
T1 construct: purchased Upstate
The experiment in a line: Akt1 kinase assay (Histone H1 substrate). The following applies: 200 μM ATP, read-out: AKT-1 IC50. The protocol: (§1) Assays for the cyclin dependent kinase activity were carried out by monitoring the phosphorylation of a synthetic peptide, HATTPKKKRK. The assay mixture containing the inhibitor and CDK-2 enzyme, complexed with cyclin A (0.4 U/ml) was mixed together in a microtiter plate in a final volume of 50 μl and incubated for 40 min at 30° C. The assay mixture contained 0.1 mM unlabeled ATP, 0.01 μCi/μl ^33P-γ-ATP, 0.03 mM peptide, 0.1 mg/ml BSA, 7.5 mM magnesium acetate, 50 mM HEPES-NaOH, pH 7.5. The reaction was stopped by adding 50 μl of 50 mM phosphoric acid. 90 μl of the mixture were transferred to a pre-wetted 96-well Multiscreen MAPHNOB filtration plate (Millipore) and filtered on a vacuum manifold. The filter plate was washed with 3 successive additions of 200 μl 50 mM phosphoric acid and then with 100 μl methanol. The filtration plate was dried for 10 min at 65° C., scintillant added and phosphorylated peptide quantified in a scintillation counter (Trilux, PerkinElmer)
Protocol for the Akt assay is the same for CDK2 except that, 3 nM Akt1 (Upstate) was used with Histone H1 as substrate with a final ATP concentration of 200 μM. The reaction was incubated at 30° C. for 40 minutes.

The target in the next experiment is T2, GST-Chk1 enzyme (Homo sapiens, UniProt O14757).
T2 sequence (O14757 1-476): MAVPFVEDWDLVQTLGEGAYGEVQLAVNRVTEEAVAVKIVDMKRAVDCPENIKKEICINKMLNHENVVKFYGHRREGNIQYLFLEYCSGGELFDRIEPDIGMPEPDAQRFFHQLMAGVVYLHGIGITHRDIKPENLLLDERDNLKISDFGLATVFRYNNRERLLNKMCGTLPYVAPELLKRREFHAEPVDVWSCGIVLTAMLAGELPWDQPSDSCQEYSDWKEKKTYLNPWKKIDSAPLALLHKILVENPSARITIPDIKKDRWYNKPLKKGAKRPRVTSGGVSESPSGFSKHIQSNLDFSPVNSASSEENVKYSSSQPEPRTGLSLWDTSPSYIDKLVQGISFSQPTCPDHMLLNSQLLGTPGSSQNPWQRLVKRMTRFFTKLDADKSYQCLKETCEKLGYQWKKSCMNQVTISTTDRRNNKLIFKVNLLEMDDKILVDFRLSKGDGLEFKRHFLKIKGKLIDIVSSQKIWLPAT
Description: Chk1 kinase assay (33P Chktide phosphorylation). As to conditions: 0.01 mM ATP, 40 minutes at 30° C.; read-out: CHK-1 IC50. As to the method:
The assay mixture containing the inhibitor and Chk1 enzyme was mixed together in a microtiter plate in a final volume of 50 μl and incubated for 40 minutes at 30° C. […] The reaction was stopped by adding 50 μl of 50 mM phosphoric acid. 90 μl of the mixture was transferred to a pre-wetted 96-well multi-screen MAPHNOB filtration plate (Millipore) and filtered on a vacuum manifold. The filter plate was washed with 3 successive additions of 200 μl 50 mM phosphoric acid and then with 100 μl methanol. The filtration plate was dried for 10 min at 65° C., scintillant added and phosphorylated peptide quantified in a scintillation counter (Trilux, PerkinElmer)

The next experiment deals with T3, PDK1 (Homo sapiens, UniProt O15530).
T3 sequence (O15530 1-556): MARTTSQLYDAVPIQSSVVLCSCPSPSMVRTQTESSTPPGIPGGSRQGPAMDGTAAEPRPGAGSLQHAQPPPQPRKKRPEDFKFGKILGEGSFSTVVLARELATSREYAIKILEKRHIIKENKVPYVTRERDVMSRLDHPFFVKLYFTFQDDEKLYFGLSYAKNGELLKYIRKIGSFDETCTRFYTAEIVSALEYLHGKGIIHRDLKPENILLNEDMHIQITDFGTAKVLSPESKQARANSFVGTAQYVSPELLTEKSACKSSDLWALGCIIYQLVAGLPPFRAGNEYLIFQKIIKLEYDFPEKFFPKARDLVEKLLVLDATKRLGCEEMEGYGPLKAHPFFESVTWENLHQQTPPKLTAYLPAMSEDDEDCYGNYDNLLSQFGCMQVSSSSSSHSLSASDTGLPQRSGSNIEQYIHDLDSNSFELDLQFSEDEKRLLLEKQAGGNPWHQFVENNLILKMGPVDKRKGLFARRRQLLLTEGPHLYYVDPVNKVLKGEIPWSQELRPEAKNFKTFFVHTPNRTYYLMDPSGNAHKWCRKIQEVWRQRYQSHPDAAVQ
Description: PDK1 kinase assay (33P peptide phosphorylation). As to conditions: 0.01 mM ATP, 60 min at 30° C.; read-out: PDK-1 IC50. The protocol: The assay mixture containing the inhibitor and PDK1 enzyme was mixed together in a microtiter plate in a final volume of 50 μl and incubated for 60 min at 30° C. The assay mixture contained 0.01 mM unlabeled ATP, 0.01 μCi/μl ^33P-γ-ATP, 0.075 mM peptide, 0.1 mg/ml BSA, 7.5 mM magnesium acetate, 0.05M Tris.HCl, pH 7.5, 0.5% 2-mercaptoethanol. The reaction was stopped by adding 50 μl of 50 mM phosphoric acid. 90 μl of the mixture were transferred to a pre-wetted 96-well Multiscreen MAPHNOB filtration plate (Millipore) and filtered on a vacuum manifold. The filter plate was washed with 3 successive additions of 200 μl 50 mM phosphoric acid and then with 100 μl methanol. The filtration plate was dried for 10 min at 65° C., scintillant added and phosphorylated peptide quantified in a scintillation counter (Trilux, PerkinElmer)

In the next experiment the target is T4, PKA (Homo sapiens, UniProt P17612).
T4 construct: purchased Upstate
Description: PKA kinase assay (Kemptide substrate). As to conditions: 100 μM ATP. As to the method: as §1, with “The” for “Assays for the cyclin dependent kinase activity were carried out by monitoring the phosphorylation of a synthetic peptide, HATTPKKKRK. The”
The PKA assay was incubated at 30° C. for 30 minutes.

The target in experiment [1] is CDK-2 enzyme, complexed with cyclin A (Homo sapiens, UniProt P24941). Description: CDK2 kinase assay (33P peptide phosphorylation). The following applies: 0.1 mM ATP, cyclin A complex. The protocol: as §1, with “The” for “Assays for the cyclin dependent kinase activity were carried out by monitoring the phosphorylation of a synthetic peptide, HATTPKKKRK. The”

T1 sequence (P31749 whole entry, species assumed): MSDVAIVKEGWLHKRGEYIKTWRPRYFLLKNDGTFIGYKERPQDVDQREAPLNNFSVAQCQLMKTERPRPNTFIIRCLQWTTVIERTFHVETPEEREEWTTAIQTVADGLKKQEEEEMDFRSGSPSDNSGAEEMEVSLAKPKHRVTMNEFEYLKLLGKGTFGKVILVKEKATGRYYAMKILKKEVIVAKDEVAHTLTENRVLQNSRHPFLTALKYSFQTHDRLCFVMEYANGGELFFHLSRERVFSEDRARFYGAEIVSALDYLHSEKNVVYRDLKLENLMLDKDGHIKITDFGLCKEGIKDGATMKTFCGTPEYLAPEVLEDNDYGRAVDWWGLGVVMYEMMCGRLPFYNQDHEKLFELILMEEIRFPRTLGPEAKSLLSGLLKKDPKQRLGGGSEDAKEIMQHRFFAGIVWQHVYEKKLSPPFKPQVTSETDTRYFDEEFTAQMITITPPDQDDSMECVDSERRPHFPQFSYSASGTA

For the molecule `Cc1[nH]nc(-c2nc3ccc(C(C)C)cc3[nH]2)c1C(=O)NC1CCN(C)CC1` [Example 46], the IC50 at Akt1 is more than 10000 nM; at GST-Chk1 enzyme it was 14 nM; at PDK1, 36 nM; against PKA it was 3800 nM; in experiment [1] it was 24200 nM.

Turning to `Cc1[nH]nc(-c2nc3ccccc3[nH]2)c1C(=O)NC1CCCNC1` (stereo not drawn) [Example 19], the IC50 at Akt1 is more than 50000 nM; on GST-Chk1 enzyme it was 58 nM; on PDK1, 50 nM; against PKA it was 10900 nM; in experiment [1], 4470 nM.

Turning to `Cc1[nH]nc(-c2nc3cc(C(=O)NC(C)C)ccc3[nH]2)c1C(=O)NC1CCNCC1` [Example 24], the IC50 at Akt1 was determined as 34500 nM; on GST-Chk1 enzyme, 36 nM; on PDK1 it was 46 nM; against PKA, 10700 nM; in experiment [1], 6420 nM.

As for `Cc1[nH]nc(-c2nc3ccc(C(C)C)cc3[nH]2)c1C(=O)N[C@@H]1CN2CCC1CC2` [Example 43], the IC50 is more than 10000 nM on Akt1; 26 nM at GST-Chk1 enzyme; 22 nM at PDK1; 2020 nM against PKA; 14700 nM in experiment [1].

On to `Cc1[nH]nc(-c2nc3cc4nc[nH]c4cc3[nH]2)c1C(=O)NC1CCNCC1` [Example 11], for which the IC50 at Akt1 was more than 50000 nM; at GST-Chk1 enzyme it was 88 nM; at PDK1, 120 nM; at PKA, 7770 nM; in experiment [1], 38900 nM.

As for `O=C(NC1CCNCC1)c1c[nH]nc1-c1nc2ccccc2[nH]1` [Example 20], the half-maximal inhibitory concentration (IC50) was more than 50000 nM on Akt1; 252 nM on GST-Chk1 enzyme; 323 nM on PDK1; 32100 nM against PKA; 6360 nM in experiment [1].

Consider `Cc1[nH]nc(-c2nc3ccc(C(C)(C)C)cc3[nH]2)c1C(=O)NC1CCNCC1` [Example 37], for which the 50% inhibitory concentration (IC50) at Akt1 was more than 10000 nM; at GST-Chk1 enzyme it was 6 nM; on PDK1, 49 nM; on PKA, 4950 nM; in experiment [1], 1850 nM.

For the molecule `Cc1[nH]nc(-c2nc3cc(Cl)c(C(C)C)cc3[nH]2)c1C(=O)NC1CN2CCC1CC2` (stereo not drawn) [Example 44], the IC50 at Akt1 was more than 10000 nM; at GST-Chk1 enzyme it was 91 nM; on PDK1, 140 nM; on PKA, 12000 nM; in experiment [1] it was more than 50000 nM.

Consider `Cc1[nH]nc(-c2nc3ccccc3[nH]2)c1C(=O)NC1CCNCC1` [Example 1, 3-(1H-Benzoimidazol-2-yl)-5-methyl-1H-pyrazole-4-carboxylic Acid piperidin-4-ylamide], for which the IC50 on Akt1 was 17100 nM; at GST-Chk1 enzyme, 98 nM; on PDK1 it was 108 nM; at PKA, 7260 nM; in experiment [1], 3300 nM.

`Cc1[nH]nc(-c2nc3cc(Cl)c(C(C)C)cc3[nH]2)c1C(=O)NC1CCNCC1` [Example 45]: the 50% inhibitory concentration (IC50) is more than 10000 nM on Akt1; 13 nM on GST-Chk1 enzyme; 13 nM at PDK1; 5130 nM against PKA; 11900 nM in experiment [1].

For the molecule `Cc1[nH]nc(-c2nc3ccc(C4CC4)cc3[nH]2)c1C(=O)NC1CCNCC1` [Example 40], the IC50 is more than 10000 nM on Akt1; 22 nM on GST-Chk1 enzyme; 20 nM at PDK1; 2860 nM on PKA; 23700 nM in experiment [1].

As to `Cc1[nH]nc(-c2nc3ccc(C(=O)NC4CCc5ccccc54)cc3[nH]2)c1C(=O)NC1CCNCC1` (stereo not drawn) [Example 48], the IC50 at PDK1 was less than 50 nM.

For the molecule `Cc1[nH]nc(-c2nc3ccc(C(C)C)cc3[nH]2)c1C(=O)NC1CC2CCC(C1)N2C` (stereo not drawn) [Example 49], the IC50 on GST-Chk1 enzyme and at PDK1 was less than 500 nM each time.

On to `Cc1[nH]nc(-c2nc3ccccc3[nH]2)c1C(=O)NCCN` [Example 50], for which the IC50 at GST-Chk1 enzyme and on PDK1 was less than 500 nM throughout.

By IC50 is commonly meant the concentration that gives 50% inhibition.
